From US8461382B2, “Ionic liquids” (BASF SE, priority 2007, dated 2013) come the findings set out here.

The nature of data set [1]: Electrical conductivity, fluorescence and surface tension measurements in aqueous solution. The following applies: concluded from conductivity and fluorescence or surface tension measurements in aqueous medium. It counts as physicochemical. An excerpt: (§1) Owing to the amphiphilic and thus solubilizing properties, the ionic liquid of example 6 has a wider solvent spectrum than conventional ionic liquids. Furthermore, it can be concluded that the ionic liquid of example 6 has structuring properties in water, organic solvents and in particular also in the pure state. Accordingly, it can serve, for example, as template in the mineralization processes (e.g. for mesoporous silicates). Furthermore, the ionic liquid of example 6 is liquid at room temperature (for melting point, see Table 1).

A short description of data set [2]: Viscosity of the ionic liquids at 25° C. The format is physicochemical. The method, then:
(§2) The viscosity at 25° C. at a low shear rate is in the order of one million millipascal seconds.
(§3) Melting and decomposition points (commencement of decomposition) and viscosities of various 2,5,8,11-tetraoxatridecan-13-oates.
^1All liquids examined behaved as Newtonian fluids

A short description of data set [3]: Decomposition point (commencement of decomposition) of 2,5,8,11-tetraoxatridecan-13-oates. It counts as physicochemical.
Text: as §3

The nature of data set [4]: Miscibility of the ionic liquid with water and organic solvents. The format is physicochemical. The method, then:
as §2, §1

A short description of data set [5]: Solubility experiments: salts and olive oil dissolved in TEGMECH2COONa. It counts as physicochemical. As for the experimental part: Solubility experiments were carried out using the sodium 2,5,8,11-tetraoxatridecan-13-oate synthesized as described in example 1.
The solubility of olive oil in a concentration of up to 10% by weight in TEGMECH2COONa is particularly worthy of mention with regard to the environmental compatibility of the sodium salt.

For the compound `COCCOCCOCCOCC(=O)O` [Example 5, hexylammonium 2,5,8,11-tetraoxatridecan-13-oate], the “Character in aqueous solution” value in data set [1] is “hydrotropic character”. In addition, the Viscosity in data set [2] (at 25° C.) is on record as 2.40 · 10^2 mPa · s; in data set [2] (order of magnitude), ~20 000 mPas.

In the case of “dodecylammonium 2,5,8,11-tetraoxatridecan-13-oate [Example 6]”, in data set [1], the “Character in aqueous solution” value was “surfactant character”. Moreover, in data set [3], the Decomposition point was determined as 165 °C. The Miscibility with water result in data set [4] is listed as “mixes with water in any ratio”. Moreover, the Viscosity in data set [2] (at 25° C.) is reported as 4.67 · 10^2 mPa · s.

On to “calcium di(2,5,8,11-tetraoxatridecan-13-oate) [Example 4]”, for which the Decomposition point in data set [3] is 320 °C.

`CCCCCCCCCCN.COCCOCCOCCOCC(=O)O` [Example 8] came in with a Decomposition point in data set [3] of 156 °C. Besides, the Viscosity in data set [2] (at 25° C.) is 4.00 · 10^2 mPa · s.

Take `COCCOCCOCCOCC(=O)[O-].[Na+]` [Example 1, sodium 2,5,8,11-tetraoxatridecan-13-oate]: the Decomposition point in data set [3] was found to be 384 °C. Further, the “Solubility of magnesium sulfate in the ionic liquid” value in data set [5] (120° C.) was “appreciably soluble”. Further, the “Solubility of ammonium nitrate in the ionic liquid” value in data set [5] (room temperature) is on record as “readily soluble”. Further, the “Solubility of NaCl in the ionic liquid” value in data set [5] (temperatures above 100° C.) is listed as “dissolves in low concentrations”. Also, the Miscibility with acetone result in data set [4] (acetone) is on record as “miscible in any ratio”. Also, in data set [4] (dichloromethane), the Miscibility with dichloromethane entry is “miscible in any ratio”. Moreover, the “Miscibility with diethyl ether” value in data set [4] (diethyl ether) was “partially miscible”. The Miscibility with pentanol entry in data set [4] (pentanol) is on record as “miscible in any ratio”. For the same compound, the Miscibility with water result in data set [4] is given as “miscible in any ratio”. Further, the Viscosity in data set [2] (at 25° C.) is 1.64 · 10^5 mPa · s; in data set [2] (at 25° C. at a low shear rate, order of magnitude), “one million”.

For the compound `COCCOCCOCCOCC(=O)[O-].[K+]` [Example 3, potassium 2,5,8,11-tetraoxatridecan-13-oate], the melting point came out at 59.1 °C. This compound had a Decomposition point in data set [3] of 369 °C.

With `CCCCCCCCN.COCCOCCOCCOCC(=O)O` [Example 7], the Decomposition point in data set [3] turned out to be 145 °C. Further, the Viscosity in data set [2] (at 25° C.) is on record as 3.75 · 10^2 mPa · s.
